Experimental data as given in patent US7659273B2, “Composition for accelerating bone fracture healing” (Mitsubishi Tanabe Pharma Corporation, priority 2001, dated 2010).

Key:
[1] = test system: rabbit costicartilage cells; experiment: Cartilage matrix (proteoglycan) production, Alcian blue staining (Experimental Examples 3 and 4); assay type: cell-based; conditions: summary of Tables 10 and 11
From the text: Costicartilages were isolated from NZ line rabbit (Kitayama Labes., Co Ltd.; male; 4-week-old) and soaked into Hank's balanced salt solution (calcium- and magnesium-free; LifeTech Co., Ltd.; hereinafter, referred to as “HBSS”). One costicartilage and one costa were excised together, the adipose tissue and the muscle tissue were removed and then, the proliferating chondrocyte layer of costicartilage was excised. The collected proliferating chondrocyte layer was cut into sections with a surgical knife (FEATHER Safety Razor Co., Ltd.) and the all proliferating chondrocyte layer sections from 4 rabbits were combined in a centrifuge tube. To the centrifuge tube was added 40 ml of HBSS (pH 7.2) supplied with 0.1% tetrasodium ethylenediamine tetraacetate to obtain suspension of the proliferating chondrocyte layer sections, which was shaken at 37° C. for 20 minutes and centrifuged (1500 rpm, 10 minutes). The supernatant was aspirated off, and 40 ml of HBSS (pH 7.2) supplied with 0.2% trypsin was added to the tube to suspend the precipitates and shaken at 37° C. for 1 hour. The tube was centrifuged (1500 rpm, 10 minutes), and the supernatant was aspirated off. The precipitates were washed twice with HBSS, suspended in 100 ml of HBSS supplied with 0.1% collagenase (Wako Pure Chemical Industries, Ltd., 034-10533) and shaken at 37° C. for 3 hours. The content of the tube was passed through the Cell Strainer (pore size 40 μm) and the filtrate was divided into four centrifuge tubes. To each of all four tubes was added 40 ml of medium (α-MEM, LifeTech Co., Ltd.), and the tubes were centrifuged (1500 rpm, 10 minutes). The supernatant was aspirated off, and the resultant precipitates were collected in one tube with Pipetman. After addition of 40 ml of the same medium, the tube was re-centrifuged (1500 rpm, 10 minutes). Washing procedure comprising addition of medium followed by centrifugation was repeated additional three times. The precipitates were suspended in the same medium to give an about 5 ml suspension, and the cell number was counted.
The suspension of costicartilage cell described above was added to 24-well plate at 50,000 cells per well (day 1). […]
After removing the medium, cells in each well were fixed by addition of 1 ml of neutral buffer containing 4% paraformaldehyde and incubation for 30 minutes at room temperature. […] Absorbance at 620 nm was measured, and cartilage matrix amount (proteoglycan production amount) in each well was estimated, and proteoglycan production rate (%) of each test compound for vehicle (100%) was calculated.
The cartilage matrix (proteoglycan) production was determined using other compounds (compounds (52)-(55) and Compound (2) for comparison) in exactly the same manner as Experimental Example 3 above.

[2] = test system: backbone, femur and cortical bone of mouse; conditions: daily subcutaneous injection; cited from earlier work
[3] = test system: cultured rabbit costicartilage cells; experiment: Calcification of chondrocyte (Experimental Example 5); assay type: cell-based; conditions: 10^−4 M; 4 week cultivation; silver nitrate and Alizarin Red staining; FIG. 1
From the text: Costicartilages were isolated from NZ line rabbit (Kitayama Labes., Co Ltd.; male; 4-week-old) and soaked into Hank's balanced salt solution (calcium- and magnesium-free; LifeTech Co., Ltd.; hereinafter, referred to as “HBSS”). One costicartilage and one costa were excised together, the adipose tissue and the muscle tissue were removed and then, the proliferating chondrocyte layer of costicartilage was excised. The collected proliferating chondrocyte layer was cut into sections with a surgical knife (FEATHER Safety Razor Co., Ltd.) and the all proliferating chondrocyte layer sections from 4 rabbits were combined in a centrifuge tube. To the centrifuge tube was added 40 ml of HBSS (pH 7.2) supplied with 0.1% tetrasodium ethylenediamine tetraacetate to obtain suspension of the proliferating chondrocyte layer sections, which was shaken at 37° C. for 20 minutes and centrifuged (1500 rpm, 10 minutes). The supernatant was aspirated off, and 40 ml of HBSS (pH 7.2) supplied with 0.2% trypsin was added to the tube to suspend the precipitates and shaken at 37° C. for 1 hour. The tube was centrifuged (1500 rpm, 10 minutes), and the supernatant was aspirated off. […] The precipitates were suspended in the same medium to give an about 5 ml suspension, and the cell number was counted. […]

fibula fracture region = experiment: Acceleration of fracture healing in normal rat, Compound (1) microspheres (Experimental Example 1); assay type: in vivo; conditions: normal rats, Example 2-(1) microspheres, 6 weeks after suturing; for Fibula Bone Mineral Density: at cutting site; for Fibula Bone Mineral Density / Fibula Bone Mineral Content: DXA at fracture region; for Breaking Energy / Breaking force: three-point bending test
Description: CD (SD) IGS rats (Charles River Japan, Inc.; male; 7-week-old) were housed for seven days at room temperature (23±2° C.) and 40-70% humidity. During the housing period, the rats were free to access commercially available food (from Oriental Bio; CE-2).
Under ether anesthesia, the left-lower legs of rats were shaved and sterilized with 70% aqueous ethanol, fibulas were exposed with scissors and cut with nail scissors (Natsume Seisakusyo; B17). The cut sections of the fibula were re-matched with tweezers. For the test groups (20 rats/group), the drug-containing microspheres prepared in Example 2-(1), which contains 0.1 or 0.5 mg of Compound (1), were placed around the cutting site of each rat using spatula followed by suturing with silk thread. For the control group (20 rats/group), the same amount of drug-free microspheres prepared in Control Example 1-(1) were placed around the cutting site using spatula followed by suturing with silk thread. Following the suturing, animals of every group were sterilized with 70% aqueous ethanol. At six weeks after the suturing, under ether anesthesia, 10 rats from each group were sacrificed by laparotomy with bleeding and the fibulas were excised.
The fibula excised at 6 weeks after suturing was subjected to DXA bone densitometer (Aloka; DCS-600) to determine bone mineral density and bone mineral content at fracture region (scanning width: 1 mm).
The volume of fibula excised 6 weeks after suturing was determined using Plethysmometer (Muromachi Kikai Co., Ltd.; TK-101).
The fibula excised at 6 weeks after suturing was subjected to a three-point bending test with bone strength tester (from Muromachi Kikai Co., Ltd.; TK-252C) to determine bone strength. Briefly, the fibula was supported by two supports apart from each other by 8 mm and the cut section was positioned at the middle of these supports, i.e., 4 mm apart from the respective two supports. Loading (3 mm/minute) from upper direction was kept on the middle point (fracture section) of fibula until fibula begins to fracture. The maximum pressure necessary to break the bone was defined as the breaking force and the total energy spent to break the bone was defined as the breaking energy.

With `COc1cc2c(cc1OC)C(c1ccnc(-n3ccc4c(OCCN5CCOCC5)cccc4c3=O)c1)=N[C@H](CO)C2` [Compound (52)] the “cartilage matrix (proteoglycan) production promoting effect (in words)” value (shortened to “cartilage matrix”) [1] was “remarkable matrix production promoting effect”.

For `CC(=O)CCCCn1c(=O)c2c(ncn2C)n(C)c1=O` [Pentoxifylline], the “bone mineral density of the backbone and the femur” value [2] is listed as “increase of bone mineral density of the backbone and the femur” and the “hyperplasia of cortical bone” value [2] is listed as “hyperplasia of cortical bone”.

For `COc1ccc(C2CNC(=O)C2)cc1OC1CCCC1` (stereo not drawn) [Rolipram], the “bone mineral density of the backbone and the femur” value [2] is listed as “increase of bone mineral density of the backbone and the femur” and the “hyperplasia of cortical bone” value [2] is listed as “hyperplasia of cortical bone”.

With `COc1cc2cc(CO)nc(-c3ccnc(-n4nc(-c5nccs5)c5ccccc5c4=O)c3)c2cc1OC` [Compound (53)] the “cartilage matrix” value [1] was “remarkable matrix production promoting effect”.

With `CCOc1cc2cc(CO)c(CO)c(-c3ccn(CCOC)c(=O)c3)c2cc1OCC` [Compound (1)] the “calcium deposition / calcification enhancement” value [3] was “calcium deposition was clearly observed”, the “cartilage matrix” value [1] was “remarkable matrix production promoting effect” and the “Fibula Bone Mineral Density” value (fibula fracture region; drug content 0.1 mg) was 36.77 ± 1.52 mg/cm^2. For the same molecule, the “Fibula Bone Volume” value (fibula fracture region; drug content 0.1 mg) was 68.1 ± 2.9 µL, the “Fibula Bone Mineral Content” value (fibula fracture region; drug content 0.1 mg) was 14.27 ± 0.76 mg and the “Breaking Energy” value (fibula fracture region; drug content 0.1 mg) was 4.37 ± 0.71 mJ. The Breaking force (fibula fracture region; drug content 0.1 mg) was 19.8 ± 2.14 N, the “Fibula Bone Mineral Density” value (fibula fracture region; drug content 0.5 mg) was 40.05 ± 1.34 mg/cm^2 and the “Fibula Bone Volume” value (fibula fracture region; drug content 0.5 mg) was 77.2 ± 2.9 µL. For the same molecule, the “Fibula Bone Mineral Content” value (fibula fracture region; drug content 0.5 mg) was 15.20 ± 0.82 mg, the “Breaking Energy” value (fibula fracture region; drug content 0.5 mg) was 6.44 ± 1.06 mJ and the Breaking force (fibula fracture region; drug content 0.5 mg) was 23.0 ± 1.68 N.
